Assay results reported in PubChem BioAssay (NCI).
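1) Cells in 96-well plates. 2) Compound, 48 h, 5 concentrations. 3) Linear interpolation between surrounding doses. 4) Unreached endpoint = highest concentration. The concentration for full growth arrest is given as TGI.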

How the values were obtained:
Test in all cases: NCI-60 cell line screen, 48 h
[1] = system: A549 NSCLC
[2] = system: MALME-3M melanoma
[3] = system: COLO 205 colon
[4] = system: SK-OV-3 ovarian
[5] = system: HCT-116 colon
[6] = system: HOP-62 NSCLC
[7] = system: SF-295 CNS
[8] = system: OVCAR-3 ovarian
[9] = system: NCI-H522 lung
[10] = system: K-562 leukemia
[11] = system: KM12 colon
[12] = system: NCI-H226 lung
[13] = system: U251 CNS
[14] = system: SF-268 CNS
[15] = system: SF-539 CNS
[16] = system: SK-MEL-28 melanoma
[17] = system: PC-3 prostate
[18] = system: HS 578T breast
[19] = system: NCI/ADR-RES ovarian

O=C1CSC(Cc2nc3ccccc3[nH]2)=N1
TGI [1]: 79.5 µM
TGI [2]: 18.4 µM
TGI [3]: 50 µM
TGI [4]: 51.3 µM
TGI [5]: 27.6 µM
TGI [6]: 44.1 µM
TGI [7]: 63.3 µM
TGI [8]: 31.6 µM
TGI [9]: 40.4 µM
TGI [10]: > 100 µM
TGI [11]: > 64.1 µM
TGI [12]: 28.3 µM
TGI [13]: 49 µM
TGI [14]: > 31.6 µM
TGI [15]: 43.1 µM
TGI [16]: > 76.1 µM

O=C1C(Cl)C(c2ccccc2)N1n1cnc2ccccc2c1=O (centres undefined)
TGI [1]: > 100 µM
TGI [2]: > 100 µM
TGI [3]: > 100 µM
TGI [4]: > 100 µM
TGI [5]: > 100 µM
TGI [6]: > 100 µM
TGI [7]: > 100 µM
TGI [8]: > 100 µM
TGI [9]: > 100 µM
TGI [10]: > 100 µM
TGI [11]: > 100 µM
TGI [12]: > 100 µM
TGI [13]: > 100 µM
TGI [14]: > 100 µM
TGI [16]: > 100 µM

O=C(Nc1ccc([N+](=O)[O-])cc1)C1C(=O)C(=O)N(c2ccc([N+](=O)[O-])cc2)C1=O (centres undefined)
TGI [1]: > 100 µM
TGI [2]: > 100 µM
TGI [3]: > 100 µM
TGI [4]: > 100 µM
TGI [5]: > 100 µM
TGI [6]: > 100 µM
TGI [7]: > 100 µM
TGI [8]: > 100 µM
TGI [9]: > 100 µM
TGI [10]: > 100 µM
TGI [11]: > 100 µM
TGI [12]: > 100 µM
TGI [13]: > 100 µM
TGI [14]: > 100 µM
TGI [15]: > 100 µM
TGI [16]: > 100 µM

C[C@]12CCC(=O)C=C1CC[C@@H]1C2CC[C@]2(C)c3nn(-c4ccc(F)cc4)nc3CC12 (some centres undefined)
TGI [1]: > 100 µM
TGI [2]: > 100 µM
TGI [3]: > 100 µM
TGI [4]: > 100 µM
TGI [5]: > 100 µM
TGI [6]: > 100 µM
TGI [7]: > 100 µM
TGI [17]: > 100 µM
TGI [8]: > 100 µM
TGI [9]: > 100 µM
TGI [10]: > 100 µM
TGI [11]: > 100 µM
TGI [18]: > 100 µM
TGI [12]: > 100 µM
TGI [13]: > 100 µM
TGI [14]: > 100 µM
TGI [15]: > 100 µM
TGI [16]: > 100 µM

O=c1[nH]cc(COCC(F)(F)C(F)(F)C(F)(F)C(F)F)c(=O)[nH]1
TGI [1]: > 100 µM
TGI [2]: > 100 µM
TGI [3]: > 100 µM
TGI [4]: > 100 µM
TGI [5]: > 100 µM
TGI [6]: > 100 µM
TGI [7]: > 100 µM
TGI [8]: > 100 µM
TGI [9]: > 100 µM
TGI [10]: > 100 µM
TGI [11]: > 100 µM
TGI [13]: > 100 µM
TGI [14]: > 100 µM
TGI [16]: > 100 µM

CCOC(=O)C(N=Nc1ccc(S(N)(=O)=O)cc1)C(C)=O (centres undefined)
TGI [1]: > 100 µM
TGI [2]: > 100 µM
TGI [3]: > 100 µM
TGI [4]: > 100 µM
TGI [5]: > 100 µM
TGI [6]: > 100 µM
TGI [7]: > 100 µM
TGI [8]: > 100 µM
TGI [9]: > 100 µM
TGI [10]: > 100 µM
TGI [11]: > 100 µM
TGI [12]: > 100 µM
TGI [13]: > 100 µM
TGI [14]: > 100 µM
TGI [15]: > 100 µM
TGI [16]: > 100 µM

Cc1cn(C2CC(N(O)Cc3ccccc3)C(CO)O2)c(=O)[nH]c1=O (centres undefined)
TGI [1]: > 100 µM
TGI [3]: > 100 µM
TGI [4]: > 100 µM
TGI [5]: > 100 µM
TGI [6]: > 100 µM
TGI [7]: > 100 µM
TGI [8]: > 100 µM
TGI [10]: > 100 µM
TGI [11]: > 100 µM
TGI [12]: > 100 µM
TGI [13]: > 100 µM
TGI [14]: > 100 µM
TGI [15]: > 100 µM
TGI [16]: > 100 µM

CCOC(=O)C1(C(=O)OCC)CN(CC)CN(c2ccccc2)C1
TGI [1]: 49.3 µM
TGI [2]: 69.2 µM
TGI [3]: 34.8 µM
TGI [4]: > 100 µM
TGI [5]: > 100 µM
TGI [6]: 40.4 µM
TGI [7]: > 100 µM
TGI [19]: > 100 µM
TGI [8]: 33.5 µM
TGI [9]: 56.1 µM
TGI [10]: > 100 µM
TGI [11]: > 100 µM
TGI [18]: > 100 µM
TGI [14]: > 100 µM
TGI [15]: 41.2 µM
TGI [16]: 38.8 µM

COc1c(C)c2c(c(C)c1Cl)Oc1c(C=O)c(O)c(Cl)c(C)c1C(=O)O2
TGI [1]: > 100 µM
TGI [2]: 61 µM
TGI [3]: 66.4 µM
TGI [4]: > 100 µM
TGI [5]: 61.9 µM
TGI [6]: 93.7 µM
TGI [7]: > 100 µM
TGI [8]: 30.8 µM
TGI [9]: 96.4 µM
TGI [10]: 97 µM
TGI [11]: > 100 µM
TGI [12]: 94.6 µM
TGI [13]: 44.9 µM
TGI [14]: > 100 µM
TGI [15]: 39.7 µM

CC1=C(C(=O)Nc2c(C)cccc2C)C(c2ccccc2Cl)C(C(=O)Nc2c(C)cccc2C)=C(C)N1
TGI [1]: > 100 µM
TGI [2]: > 100 µM
TGI [3]: > 100 µM
TGI [4]: > 100 µM
TGI [6]: > 100 µM
TGI [7]: > 100 µM
TGI [8]: > 100 µM
TGI [9]: > 100 µM
TGI [10]: > 100 µM
TGI [11]: > 100 µM
TGI [12]: > 100 µM
TGI [13]: > 100 µM
TGI [14]: > 100 µM
TGI [15]: > 100 µM
TGI [16]: > 100 µM

COC(=O)C(=C/c1ccc(OC)cc1)/C(C(=O)O)=C(/C)c1ccccc1
TGI [1]: > 100 µM
TGI [2]: > 100 µM
TGI [3]: > 100 µM
TGI [4]: > 100 µM
TGI [5]: > 100 µM
TGI [6]: > 100 µM
TGI [7]: > 100 µM
TGI [8]: > 100 µM
TGI [9]: > 100 µM
TGI [10]: > 100 µM
TGI [11]: > 100 µM
TGI [12]: > 100 µM
TGI [13]: > 100 µM
TGI [15]: > 100 µM

COc1cc2c(cc1OCc1ccccc1)CNCC2
TGI [1]: > 100 µM
TGI [2]: > 100 µM
TGI [3]: > 100 µM
TGI [4]: > 100 µM
TGI [5]: > 100 µM
TGI [6]: > 100 µM
TGI [7]: > 100 µM
TGI [8]: > 100 µM
TGI [9]: > 100 µM
TGI [10]: > 100 µM
TGI [11]: > 100 µM
TGI [12]: > 100 µM
TGI [13]: > 100 µM
TGI [14]: > 100 µM
TGI [15]: > 100 µM
TGI [16]: > 100 µM

CC(C)(C)C(=O)/C=C/c1ccc(Oc2ccccc2)cc1
TGI [1]: 94.3 µM
TGI [2]: 44.6 µM
TGI [4]: > 100 µM
TGI [5]: 34.7 µM
TGI [6]: 86.4 µM
TGI [7]: > 100 µM
TGI [9]: 24.1 µM
TGI [10]: 36 µM
TGI [11]: 33.9 µM
TGI [12]: 36.2 µM
TGI [13]: 28.4 µM
TGI [14]: 62.1 µM
TGI [16]: > 100 µM

C/C(=C1/CCCC2(N=NCC2c2ccccc2)C1=O)c1ccccc1 (centres undefined)
TGI [1]: 92.6 µM
TGI [2]: 59.7 µM
TGI [3]: 31.1 µM
TGI [4]: > 100 µM
TGI [5]: 53.3 µM
TGI [7]: > 100 µM
TGI [8]: 40.3 µM
TGI [9]: 59.6 µM
TGI [10]: 41.4 µM
TGI [11]: 31.3 µM
TGI [12]: 41.3 µM
TGI [13]: 72 µM
TGI [14]: > 100 µM
TGI [15]: > 100 µM
TGI [16]: 73.2 µM

CC1=NC(=Cc2ccc(O)cc2)C(=O)N1n1c(-c2ccccc2)nc2ccccc2c1=O
TGI [1]: > 100 µM
TGI [2]: > 100 µM
TGI [3]: > 100 µM
TGI [4]: > 100 µM
TGI [5]: > 100 µM
TGI [6]: > 100 µM
TGI [7]: > 100 µM
TGI [17]: > 100 µM
TGI [9]: > 100 µM
TGI [10]: > 100 µM
TGI [11]: > 100 µM
TGI [18]: > 100 µM
TGI [12]: > 100 µM
TGI [14]: > 100 µM
TGI [15]: > 100 µM
TGI [16]: > 100 µM
